# Measurements: patent publication US20230192701A1, “BICYCLIC KINASE INHIBITORS AND USES THEREOF” (iOmx Therapeutics AG, priority 2020, published 2023)
# How the values were obtained:
# [1] = molecular target: SIK2 (Homo sapiens, UniProt Q9H0K1); assay: radiometric protein kinase assay (33PanQinase Activity Assay), SIK2; assay type: biochemical; conditions: ATP 1.0 μM, substrate RBER-CHKtide
# [2] = system: MC38 tumour cells; assay: TNF-sensitised cell viability assay (CellTiter-Glo), MC38; assay type: cell-based, murine; conditions: Mus musculus, MC-38, read-out: MC38 IC50 (at 100 ng/ml rMuTNF); 100 ng/ml rMuTNF, 72 h
# [3] = Kinetic solubility assay; assay type: physicochemical; conditions: aqueous buffer, kinetic from dmso stock; PBS buffer pH 7.4, 1.0% DMSO, 24 h at RT
# Method: The Kinetic solubility assay was conducted as follows. 4 uL compound of the 50 mM DMSO stock was added to deep well plate containing 396 uL PBS buffer (pH 7.4). The DMSO content in the sample was 1.0%, and the compound concentration 500 μM. The sample plate was vortexed at 800 rpm for 24 h at RT on a thermomixer. At the end of the incubation period, the sample plate was centrifuged at 4000 rpm for 10 mins. 3 uL of supernatant was transferred to well containing 297 uL of ISTD in Acetonitrile water:50:50, v/v and analysed in LC-MS/MS against a calibration curve (CC).
# [4] = Human hepatocyte stability; assay type: in vitro ADME; conditions: human hepatocytes, 37°C
# Method: Determination of human and mice hepatocyte stability was conducted as follows. 200 uL of the respective hepatocyte cell suspension (2×10e6/ml) was preincubated at 37° C. for 10 min. Then, 200 uL of a 2 uM working stock of the test compound was added to the hepatocyte cell suspension, and the mixture was further incubated at 37° C. and 500 rpm. The reaction was stopped at 30, 60 and 120 min by precipitating 50 uL of the incubation mixture with 200 uL of acetonitrile. Samples were vortexed for 5 min at 1200 rpm and centrifuged at 4000 rpm for 10 min. Intrinsic clearance and half-life were analysed using LC-MS/MS.
# (§1) LC-MS/MS was performed for all assays using a C18 column (50*4.6 mm, 5 um) for the CaCo2 assay, or a C18 column (50*4.6 mm, 4 um) for the other assays. The mobile phases used were 10 mM Ammonium Acetate with 0.1% Formic acid (aqueous) and 100% Acetonitrile (organic).
# [5] = CaCo2 permeability and efflux assay; assay type: in vitro ADME; conditions: human, Caco-2; CaCo2, mean efflux ratio
# Method: (§2) To determine apparent permeability of the compounds an assay using a Caco-2 cells monolayer (cultured for 21d) in a 24-well format (poly carbonate high pore density plate with 0.4 μm pore size and a 0.7 cm2 active membrane area; Millipore) was performed as followed. 800 uL of DMEM was added to the basal compartment of the 24 well-plate and 60000 CaCo2 cells/well were seeded in the apical wells and incubated in a CO2 incubator at 37° C. for proliferation of cells. Apical to Basal permeability was determined by adding 400 uL of test compound to the apical well and 800 uL of HBSS buffer with 2% BSA to the basal well. 25 uL of basal sample was collected after 120 min and processed as stated below. Basal to Apical permeability was determined by adding 800 uL of test compound to basal well and 400 uL of HBSS buffer with 2% BSA to apical well. 25 uL of apical sample was collected after 120 min and processed as stated below. The samples were processed by diluting the donor samples 1:1 with HBSS containing 2% BSA and the receiver samples 1:1 with HBSS buffer. Samples were then precipitated with 200 uL of acetonitrile containing internal standard, vortexed for 5 min at 1000 rpm, and centrifuged at 4000 rpm for 20 min. 150 uL of supernatant was diluted with 150 uL of water and submitted for LC-MS/MS analysis, and Bi-directional (A-B and B-A) apparent permeability (Papp) was calculated.
# as §1
# [6] = system: Caco-2 cells monolayer; assay: CaCo2 permeability and efflux assay; assay type: in vitro ADME; conditions: CaCo2, apical to basal, 120 min
# Method: as §2, §1
# [7] = pharmacokinetic study, plasma level after single po or iv administration; assay type: in vivo, male CD1 mice; conditions: mice
# Method: Screening PK properties of compounds of Formula (I) are additionally determined, including plasma and free plasma concentration, as well as Cmax. For example, the free concentration of compound after a dose of eg 30 mg/kg po (per os) administered mice can be determined for certain time points after administrations.
# To further investigate PK properties of kinase inhibitors of Formula (I), the compounds are tested for in vivo drug exposure and potency in a full pharmacokinetic study with oral administration (per os, po).
# The experimental procedure and the determination of the pharmacokinetic parameters are investigated after single administration of each compound per gavage in male CD1 mice (Intonation Research Laboratories (Hyderabad, India)). The compounds are diluted in 5% DMSO+5% Solutol+90% water. Plasma level (eg sampling 0.25 h; 0.5 h; 1 h; 1.5 h; 2 h; 4 h; 6 h; 12 h; 24 h after drug administration) of the compounds are analysed by LC-MS/MS and pharmacokinetic parameters are determined using non-compartmental analysis and nominal dose levels of eg 30 mg/kg po and 1 mg/kg iv. Three animals are analysed per time point and each mouse is used for three plasma samplings in total.
# Chain of SIK2 (Q9H0K1 whole entry): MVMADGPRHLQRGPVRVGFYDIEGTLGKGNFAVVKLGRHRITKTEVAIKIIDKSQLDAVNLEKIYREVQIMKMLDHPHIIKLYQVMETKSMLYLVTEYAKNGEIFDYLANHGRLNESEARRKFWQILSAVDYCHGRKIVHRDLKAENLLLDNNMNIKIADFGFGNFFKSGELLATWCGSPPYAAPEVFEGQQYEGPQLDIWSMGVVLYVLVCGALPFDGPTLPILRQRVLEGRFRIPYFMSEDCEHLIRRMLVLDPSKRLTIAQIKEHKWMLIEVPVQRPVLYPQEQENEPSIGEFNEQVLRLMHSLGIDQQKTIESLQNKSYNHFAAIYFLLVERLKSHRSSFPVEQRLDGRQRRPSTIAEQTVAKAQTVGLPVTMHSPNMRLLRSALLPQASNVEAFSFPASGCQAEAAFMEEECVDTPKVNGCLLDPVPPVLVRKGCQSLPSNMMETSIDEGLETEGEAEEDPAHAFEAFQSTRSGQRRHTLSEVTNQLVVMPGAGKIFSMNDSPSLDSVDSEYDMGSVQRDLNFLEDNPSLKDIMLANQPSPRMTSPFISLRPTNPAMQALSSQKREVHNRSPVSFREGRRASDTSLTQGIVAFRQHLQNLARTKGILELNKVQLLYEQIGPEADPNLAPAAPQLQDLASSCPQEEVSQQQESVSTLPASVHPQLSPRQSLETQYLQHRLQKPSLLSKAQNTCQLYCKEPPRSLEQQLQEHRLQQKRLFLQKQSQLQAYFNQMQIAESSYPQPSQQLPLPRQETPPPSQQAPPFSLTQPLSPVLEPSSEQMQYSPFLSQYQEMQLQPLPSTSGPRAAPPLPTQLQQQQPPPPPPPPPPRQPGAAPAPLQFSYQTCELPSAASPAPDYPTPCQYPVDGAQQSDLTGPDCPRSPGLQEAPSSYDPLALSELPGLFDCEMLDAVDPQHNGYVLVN
smiles,measurement,setting,value
"COc1ccc(N2C(=O)N(c3c(C)csc3Cl)Cc3cnc(Nc4ccc(C5CCN(C)CC5)cc4OC)nc32)nc1 [AA1, 3-(2-chloro-4-methylthiophen-3-yl)-7-((2-methoxy-4-(1-methylpiperidin-4-yl)phenyl)amino)-l-(5-methoxypyridin-2-yl)-3,4-dihydropyrimido[4,5-d]pyrimidin-2(1H)-one]",IC50,[1],100 to 200 nM
same,IC50,[2],1000 to 1500 nM
same,solubility kinetic at 24 h,[3],6.9 µM
same,half-life at 1 uM,[4],11 h
same,efflux ratio at 120 min,[5],2.4
same,A > B(10 EE-06 cm/s),[6],10.5 10 EE-06 cm/s
same,compound detectable in plasma after 24 h,[7]; 1 mg/kg iv,detectable after 24 hours
same,compound detectable in plasma after 24 h,[7]; 30 mg/kg po,detectable after 24 hours
